Laboratory results as given in patent publication US20070015214A1, “Methods for identifying compounds for regulating muscle mass or function using prostanoid IP receptors” (The Procter & Gamble Company, priority 2005, published 2007).
Marks after values point to notes of the source that are not given here.

System: casting-induced atrophy of the tibialis anterior and medial gastrocnemius muscles
Experiment: mouse casting model of skeletal muscle atrophy
Type: in vivo
Settings: fourteen days, casted right hind leg, male mice
Description: The role of the prostanoid IP receptor in vivo is investigated in the mouse casting model of skeletal muscle atrophy using the pharmacological agents carbaprostacyclin, ciprostene, beraprost and iloprost (Cayman Chemical Company, Ann Arbor, Mich.) which are selective agonists for the prostanoid IP receptor. Eight mice are used per treatment group in the study described. Following casting of the right hind leg, male mice are injected subcutaneously in the midscapular region once daily, with either carbaprostacyclin, ciprostene, beraprost, iloprost or vehicle control (phosphate buffered saline), for fourteen days at the daily delivered dose indicated. On day fourteen, the tibialis anterior and medial gastrocnemius muscles are removed and weighed to determine the degree of atrophy. Percent inhibition of atrophy is calculated using the following formula: [formula] Statistical significance of the results is determined using ANCOVA (Douglas C. Montgomery, Design and Analysis of Experiments, John Wiley and Sons, New York (2nd ed. 1984).

[1] = 0.3 mg/kg/d subcutaneously once daily
[2] = 1.0 mg/kg/d subcutaneously once daily
[3] = 3.0 mg/kg/d subcutaneously once daily

SMILES	% inhibition of atrophy medial gastrocnemius muscle [1]	% inhibition of atrophy tibialis anterior muscle [1]	% inhibition of atrophy medial gastrocnemius muscle [2]	% inhibition of atrophy tibialis anterior muscle [2]	% inhibition of atrophy medial gastrocnemius muscle [3]	% inhibition of atrophy tibialis anterior muscle [3]
CC#CCC(C)[C@H](O)/C=C/[C@@H]1[C@H]2c3cccc(CCCC(=O)O)c3O[C@H]2C[C@H]1O (mixture of isomers) [Beraprost]	46* %	28* %	22%	27* %	28* %	5%
CCCCC[C@H](O)/C=C/[C@@H]1[C@H]2C/C(=C/CCCC(=O)O)C[C@H]2C[C@H]1O [Carbaprostacyclin]	1%	0%	24* %	12%	43* %	8%
CCCCC[C@H](O)/C=C/[C@H]1[C@H](O)C[C@]2(C)C/C(=C\CCCC(=O)O)C[C@H]12 [Ciprostene]	25* %	5%	20%	9%	43* %	25* %
CC#CCC(C)[C@H](O)/C=C/[C@@H]1[C@H]2C/C(=C/CCCC(=O)O)C[C@H]2C[C@H]1O (stereo partly drawn) [Iloprost]	42* %	18%	36* %	21* %	31* %	11%
